Measured values from publication PMC9810691, “Structure-guided peptide engineering of a positive allosteric modulator targeting the outer pore of TRPV1 for long-lasting analgesia” (Nature Communications, 2023).
Values joined by “and” are separate entries in the source; they are usually repeats but may differ in a detail not shown here. Equal entries are not always repeated.

Columns and labels:
TRPV1 [1] = molecular target: T1, TRPV1 (Mus musculus, UniProt Q704Y3); experiment: Capsaicin-induced desensitization of TRPV1 (WT) in calcium; assay type: cell-based, murine
Method: (§1) HEK293T cells are cultured using DMEM medium contained 10% FBS in a cell incubator with 5% CO2 at 37 °C. Plasmids of murine TRPV1, TRPV2, TRPV3 and human TRPA1 are labeled with YFP or GFP as indicators for subsequent electrophysiological recordings. cDNA constructs of ion channels were transiently transfected with Lipofectamine 2000 (Invitrogen, Carlsbad, CA). And one or 2 days after transient transfection, electrophysiological recordings were performed.
(§2) Patch-clamp recordings were carried out with a HEKA EPC10 amplifier controlled by PatchMaster software (HEKA). Patch pipettes were prepared from borosilicate glass and fire-polished to resistance of 3–8 MΩ by P-97 puller. Both bath solution and pipette solution contained 130 mM NaCl, 10 mM glucose, 0.2 mM EDTA, and 3 mM HEPES and were adjusted to pH 7.2–7.4 with NaOH for whole-cell recordings. For solution with pH lower than 6.5, HEPES was replaced by MES. Whole-cell recordings were performed at ±80 mV. Current was sampled at 10 kHz and filtered at 2.9 kHz. All recordings were performed at room temperature (25 °C). A gravity-driven system (RSC-200, Bio-Logic) with freely rotated perfusion tubes was used for the perfusion of peptide or ligands. Bath and ligand solution were delivered through separate tubes to minimize the mixing of solutions. […]
(§3) Data from whole-cell recordings were analyzed in Igor Pro version 5.05 (WaveMatrix). […]

TRPV1 [2] = molecular target: T1, TRPV1; experiment: Calcium imaging, HEK293T cells expressing TRPV1; assay type: cell-based, murine
Method: as §1
Calcium imaging assay was performed as previously described[12],[20]. In brief, HEK293T cells expressing TRPV1 were incubated with 2 μM Fluo-4 AM (Thermo Fisher) in 2 mM calcium Ringer’s solution (140 mM NaCl, 5 mM KCl, 2 mM MgCl2, 2 mM CaCl2, 10 mM glucose, and 10 mM HEPES, pH 7.4). Fluorescence images of HEK293T cells were acquired with Nikon Eclipse Ti2 microscope with optiMOS charge-coupled device camera controlled by the Ocular Software (Molecular Devices). Fluo-4 AM was excited at 500/20-nm excitation, and fluorescence emission was detected at 535/30-nm. Fluorescence images were analyzed with Fiji software and Office Excel.

TRPV1 K604E = experiment: Desensitization, TRPV1 mutant K604E; assay type: cell-based, murine; conditions: 10 μM cap alone or + 30 μM s-RhTx; single cells; listed as cap
Method: Site mutations of mTRPV1 were generated by Fast Mutagenesis Kit (Takara Bio). Primers used to generate point mutations are summarized in Supplementary Table 1. All mutations were confirmed by sequencing.
as §2, with “solutions. Patch pipette holding cells was placed in front of the perfusion tube outlet for perfusion.” for “solutions.”
as §3

wildtype mice = assay type: in vivo
Method: Adult C57 BL/6 mice (male, 8–10 weeks) and Trpv1^-/- mice (Jax Strain #:003770) were used for behavioral studies. To specifically label Trpv1-positive nerve fibers in skin tissues, Trpv1-Cre mice[36] (Jax Strain #:017769) were crossed with floxed reporter lines (Ai32, Jax Strain #:012569 or Ai14, Jax Strain #:007914) to get the transgenic reporter (Trpv1-Ai32 or Trpv1-Ai14) mice. Mice were group-housed at 22–24 °C and relative humidity of 30–70% under the 12 h light-dark cycle with access to standard food and water ad libitum. All the animal procedures were approved by the Institutional Animal Care & Use Committee (IACUC) of Zhejiang University. […]
Spontaneous pain was measured by counting the time (s) mice spent on licking, lifting, or flinching the affected hind paws over a 10-min period after i.pl. injection.

[3] = tested on: Trpv1+ nerve fibers, Trpv1-Ai32 / Trpv1-Ai14 mice; experiment: Trpv1+ intra-epidermal nerve fiber (IENF) quantification; assay type: in vivo; conditions: capsaicin 200 ng alone or with 2 μg peptide
Method: Adult C57 BL/6 mice (male, 8–10 weeks) and Trpv1^-/- mice (Jax Strain #:003770) were used for behavioral studies. To specifically label Trpv1-positive nerve fibers in skin tissues, Trpv1-Cre mice[36] (Jax Strain #:017769) were crossed with floxed reporter lines (Ai32, Jax Strain #:012569 or Ai14, Jax Strain #:007914) to get the transgenic reporter (Trpv1-Ai32 or Trpv1-Ai14) mice. Mice were group-housed at 22–24 °C and relative humidity of 30–70% under the 12 h light-dark cycle with access to standard food and water ad libitum. All the animal procedures were approved by the Institutional Animal Care & Use Committee (IACUC) of Zhejiang University.
After appropriate survival times, the mice were deeply anesthetized with isoflurane and perfused through the ascending aorta with PBS, followed by 4% PFA. After the perfusion, the hind paw glabrous skins and L4-L6 DRGs were removed and postfixed in the same fixative overnight. Skin sections (30 μm) and DRG sections (10 μm) were cut in a cryostat. Sections were blocked with 2% BSA for 2 h at room temperature and then incubated with Deep-red 640/660-conjugated Nissl (1:1000) at room temperature for 2 h. Sections were then incubated with DAPI (1:10,000, Vector Laboratories, catalog H-1200) for 5 min, followed by three times washing with PBS for 5 min each. The stained and mounted sections were examined with a Nikon fluorescence microscope, and images were captured with a charge-coupled device Spot camera. For quantification analysis, at least three sections from each mouse were selected, and at least three mice were analyzed in each group. To evaluate Trpv1-positive nerve fiber degeneration, transgenic reporter (Trpv1-Ai32 or Trpv1-Ai14) mice were used for the quantification of intra-epidermal nerve fiber (IENF) density. IENF density was calculated by counting the number of IENF crossing the epidermis-dermis boundary within unit length.

[4] = tested on: CFA-induced chronic inflammatory pain model mice; experiment: CFA-induced heat hyperalgesia (Hargreaves test); assay type: in vivo; conditions: capsaicin alone (with saline) or with linear or folded s-RhTx; words
Method: Thermal sensitivity was tested using a Hargreaves radiant heat apparatus (IITC Life Science) as previously reported[40],[41]. For heat hyperalgesia test in CFA model, the basal paw withdrawal latency was adjusted to 9 to 12 s, with a cutoff of 20 s to prevent tissue damage. For thermal sensitivity test, the basal paw withdrawal latency was adjusted to 4 to 6 s, with a cutoff of 10 s to prevent tissue damage. Withdrawal latency were averaged from three consecutive tests with a 5 min interval between measurements.

[5] = tested on: CFA-induced chronic inflammatory pain model mice; assay type: in vivo; conditions: capsaicin alone (with saline) or with linear or folded s-RhTx; words
Method: Mechanical allodynia was assessed via von Frey test as previously reported. Mice were placed in a plexiglass chamber upon the elevated metal mesh with 1 cm openings and allowed to acclimatize for 1 h. To determine mechanical thresholds of paw withdrawal, a series of von Frey filaments (0.02–2.56 g, Stoelting Co.) with increasing stiffness were used according to Dixon’s up-down method.

T1 sequence (Q704Y3 whole entry): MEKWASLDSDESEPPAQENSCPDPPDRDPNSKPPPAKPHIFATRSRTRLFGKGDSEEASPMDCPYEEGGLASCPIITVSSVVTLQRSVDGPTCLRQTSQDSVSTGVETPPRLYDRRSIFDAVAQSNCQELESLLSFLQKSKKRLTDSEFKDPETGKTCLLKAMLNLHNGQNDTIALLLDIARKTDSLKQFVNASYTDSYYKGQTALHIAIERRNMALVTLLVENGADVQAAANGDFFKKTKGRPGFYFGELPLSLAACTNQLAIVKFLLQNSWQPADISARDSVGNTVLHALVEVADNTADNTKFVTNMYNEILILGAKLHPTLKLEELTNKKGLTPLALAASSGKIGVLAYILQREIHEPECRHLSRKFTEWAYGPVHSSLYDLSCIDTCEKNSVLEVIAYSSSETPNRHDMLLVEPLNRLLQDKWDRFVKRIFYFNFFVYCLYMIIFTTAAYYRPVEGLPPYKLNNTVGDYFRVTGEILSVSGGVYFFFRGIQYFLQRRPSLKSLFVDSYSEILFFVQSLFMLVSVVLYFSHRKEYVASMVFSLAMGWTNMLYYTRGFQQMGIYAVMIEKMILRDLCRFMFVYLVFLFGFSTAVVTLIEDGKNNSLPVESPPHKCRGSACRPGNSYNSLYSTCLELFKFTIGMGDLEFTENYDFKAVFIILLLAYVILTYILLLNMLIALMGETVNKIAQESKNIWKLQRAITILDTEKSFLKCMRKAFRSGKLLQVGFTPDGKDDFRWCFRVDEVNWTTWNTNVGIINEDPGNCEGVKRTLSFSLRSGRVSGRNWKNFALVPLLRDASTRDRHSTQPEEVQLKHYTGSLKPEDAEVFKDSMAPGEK

COc1cc(CNC(=O)CCCC/C=C/C(C)C)ccc1O [capsaicin, Capsaicin]
AUC of desensitization (mean) (TRPV1 [1]): 72.39 ± 6.61 and 39.25 ± 5.01 | desensitization time constant tau (mean) (TRPV1 [1]): 47.37 ± 6.14 s and 23.87 ± 3.97 s | calcium influx (TRPV1 [2]): cannot induce discernable calcium influx | desensitization time constant, K604E (TRPV1 K604E): 46.184 s and 35.399 s and 63.872 s and 58.758 s and 34.354 s and 64.15 s | spontaneous pain behavior, with capsaicin (wildtype mice; capsaicin 200 ng alone or with 2 μg peptide, i.pl., words): caused a mild spontaneous pain behavior | total time of spontaneous pain within 10 min, with capsaicin (wildtype mice; capsaicin 200 ng i.pl. alone (cap) or with 2 μg linear or folded s-RhTx, 20 μl, individual mice, listed as Cap): 63.91 s and 41.04 s and 20.17 s and 30.43 s and 88.51 s and 98.54 s and 102.03 s and 29.73 s and 145.77 s | IENF number, with capsaicin ([3]; individual mice, listed as Cap): 11 and 9 and 12 | number of Trpv1+ IENF, with capsaicin ([3]; words): little effect on the number of Trpv1^+ IENF | effect on CFA-induced heat hyperalgesia [4]: slow recovery from heat hyperalgesia | effect on CFA-induced mechanical allodynia [5]: robust and prolonged mechanical allodynia
